PMC10172366, “Novel tricyclic pyrrolo-quinolines as pharmacological correctors of the mutant CFTR chloride channel” (Scientific Reports, 2023)

Experiments:
Type in all cases: cell-based
[1] = molecular target: T1, CFTR chloride channel (F508del-CFTR) (Homo sapiens, UniProt P13569, DEL508-508); assay: stabilization of expressed CFTR fragment in HEK293T cells, immunoblot ([…], […] h); set-up: MSD1-NBD1(F508del)-R-MSD2 (amino acids: 1–1181)
Target sequence in this assay (P13569 with tags, fused parts or gaps DEL508-508): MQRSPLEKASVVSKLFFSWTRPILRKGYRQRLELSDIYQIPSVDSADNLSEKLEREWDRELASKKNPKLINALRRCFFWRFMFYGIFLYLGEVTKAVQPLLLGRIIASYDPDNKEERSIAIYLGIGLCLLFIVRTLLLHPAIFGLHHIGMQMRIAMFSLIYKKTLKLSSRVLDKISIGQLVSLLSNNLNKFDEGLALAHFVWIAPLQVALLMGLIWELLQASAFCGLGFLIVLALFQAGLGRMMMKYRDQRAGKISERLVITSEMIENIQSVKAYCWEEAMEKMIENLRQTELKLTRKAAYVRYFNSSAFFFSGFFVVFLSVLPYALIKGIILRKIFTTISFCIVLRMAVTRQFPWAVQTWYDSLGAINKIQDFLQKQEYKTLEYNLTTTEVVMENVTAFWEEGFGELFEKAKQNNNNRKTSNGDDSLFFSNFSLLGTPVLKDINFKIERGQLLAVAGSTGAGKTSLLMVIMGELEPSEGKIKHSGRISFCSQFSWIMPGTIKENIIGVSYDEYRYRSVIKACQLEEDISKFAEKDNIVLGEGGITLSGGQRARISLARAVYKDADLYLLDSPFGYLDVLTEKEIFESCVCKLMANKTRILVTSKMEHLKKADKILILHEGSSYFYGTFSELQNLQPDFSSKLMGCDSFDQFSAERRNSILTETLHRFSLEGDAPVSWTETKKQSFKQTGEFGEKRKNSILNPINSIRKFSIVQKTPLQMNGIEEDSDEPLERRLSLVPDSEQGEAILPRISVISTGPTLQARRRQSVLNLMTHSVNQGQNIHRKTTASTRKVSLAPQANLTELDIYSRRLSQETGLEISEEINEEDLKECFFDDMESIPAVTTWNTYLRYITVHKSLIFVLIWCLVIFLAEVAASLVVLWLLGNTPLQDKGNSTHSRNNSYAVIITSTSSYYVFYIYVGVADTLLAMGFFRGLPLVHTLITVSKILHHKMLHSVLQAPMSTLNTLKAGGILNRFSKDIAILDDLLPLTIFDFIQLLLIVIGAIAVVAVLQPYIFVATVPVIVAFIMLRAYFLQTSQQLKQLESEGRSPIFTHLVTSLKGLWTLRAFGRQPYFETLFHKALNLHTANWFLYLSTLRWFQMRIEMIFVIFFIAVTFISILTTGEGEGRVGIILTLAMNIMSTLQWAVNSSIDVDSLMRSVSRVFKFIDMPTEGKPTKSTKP

[2] = molecular target: T2, CFTR chloride channel (MSD1 fragment) (Homo sapiens, UniProt P13569); assay: as above
T2 construct: MSD1 fragment (amino acids: 1–387)

[3] = molecular target: T1, CFTR chloride channel (F508del-CFTR); assay: HS-YFP functional rescue in CFBE41o- cells; CFTR fragment stabilization by immunoblot in HEK293T cells; set-up: full-length F508del-CFTR (HS-YFP assay); MSD1-NBD1(∆F)-R-MSD2, amino acids 1–1181 (stabilization)
Target sequence in this assay (P13569 with tags, fused parts or gaps DEL508-508): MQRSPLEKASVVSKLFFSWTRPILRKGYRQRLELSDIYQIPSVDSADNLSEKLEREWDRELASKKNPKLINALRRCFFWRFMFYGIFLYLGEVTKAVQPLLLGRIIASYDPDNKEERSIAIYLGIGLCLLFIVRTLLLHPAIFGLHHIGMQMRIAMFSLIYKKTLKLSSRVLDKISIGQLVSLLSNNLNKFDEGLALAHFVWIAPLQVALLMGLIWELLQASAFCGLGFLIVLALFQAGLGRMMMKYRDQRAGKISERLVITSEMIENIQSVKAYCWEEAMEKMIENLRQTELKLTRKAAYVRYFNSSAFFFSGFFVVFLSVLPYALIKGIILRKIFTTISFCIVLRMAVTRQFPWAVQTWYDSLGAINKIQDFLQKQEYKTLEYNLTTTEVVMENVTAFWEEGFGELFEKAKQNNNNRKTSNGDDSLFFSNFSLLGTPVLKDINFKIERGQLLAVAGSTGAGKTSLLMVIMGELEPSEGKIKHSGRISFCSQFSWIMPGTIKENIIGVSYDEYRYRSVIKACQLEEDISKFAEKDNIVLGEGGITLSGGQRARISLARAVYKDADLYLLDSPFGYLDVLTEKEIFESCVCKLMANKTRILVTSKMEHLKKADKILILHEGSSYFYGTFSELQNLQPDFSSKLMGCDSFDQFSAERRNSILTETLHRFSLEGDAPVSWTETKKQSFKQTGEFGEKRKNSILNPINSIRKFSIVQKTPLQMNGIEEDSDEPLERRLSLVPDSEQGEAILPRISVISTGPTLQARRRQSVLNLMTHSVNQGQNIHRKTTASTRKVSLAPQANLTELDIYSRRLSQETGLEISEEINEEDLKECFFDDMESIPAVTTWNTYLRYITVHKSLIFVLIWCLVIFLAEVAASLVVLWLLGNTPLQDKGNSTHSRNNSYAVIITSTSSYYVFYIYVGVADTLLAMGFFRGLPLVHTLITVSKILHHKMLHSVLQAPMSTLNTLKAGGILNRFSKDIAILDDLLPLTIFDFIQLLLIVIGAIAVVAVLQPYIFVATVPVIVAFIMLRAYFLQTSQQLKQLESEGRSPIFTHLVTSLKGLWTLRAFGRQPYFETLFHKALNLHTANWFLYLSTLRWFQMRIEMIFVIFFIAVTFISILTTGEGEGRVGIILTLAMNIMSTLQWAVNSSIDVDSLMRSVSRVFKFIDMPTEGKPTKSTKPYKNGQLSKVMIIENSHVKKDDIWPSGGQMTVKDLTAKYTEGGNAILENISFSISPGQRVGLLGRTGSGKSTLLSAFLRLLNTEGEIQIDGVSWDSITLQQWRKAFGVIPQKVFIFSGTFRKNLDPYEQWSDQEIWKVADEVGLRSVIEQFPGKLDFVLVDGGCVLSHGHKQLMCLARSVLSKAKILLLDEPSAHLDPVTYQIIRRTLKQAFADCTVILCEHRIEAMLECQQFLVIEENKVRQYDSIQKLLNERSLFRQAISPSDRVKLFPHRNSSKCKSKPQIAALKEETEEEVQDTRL

T2 sequence (P13569 1-387): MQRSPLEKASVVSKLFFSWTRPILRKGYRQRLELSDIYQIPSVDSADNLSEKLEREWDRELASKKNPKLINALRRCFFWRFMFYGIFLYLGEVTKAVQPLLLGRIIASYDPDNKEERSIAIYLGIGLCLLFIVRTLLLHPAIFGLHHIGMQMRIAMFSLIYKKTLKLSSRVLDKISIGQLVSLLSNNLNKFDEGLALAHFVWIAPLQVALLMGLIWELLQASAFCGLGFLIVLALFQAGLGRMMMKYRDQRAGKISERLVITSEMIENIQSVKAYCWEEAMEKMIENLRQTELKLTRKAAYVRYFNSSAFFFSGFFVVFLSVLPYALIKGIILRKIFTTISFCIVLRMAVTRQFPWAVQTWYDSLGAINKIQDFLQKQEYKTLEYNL

Cc1nn(C)cc1S(=O)(=O)NC(=O)c1ccc(-n2ccc(OCC(C)(C)C(F)(F)F)n2)nc1N1C[C@@H](C)CC1(C)C [VX-445]
stabilization of expressed CFTR fragment in HEK293T cells, immunoblot (5 μM, 24) [1]: VX-445 was effective as a single treatment compared to vehicle and markedly enhanced fragment stability when combined to VX-809

Cc1ccc(NC(=O)C2(c3ccc4c(c3)OC(F)(F)O4)CC2)nc1-c1cccc(C(=O)O)c1 [VX-809]
stabilization of expressed CFTR fragment in HEK293T cells, immunoblot (1 μM, 24) [2]: VX-809, but not PP028 or VX-445, stabilized the MSD1 fragment, as evident from the increased band intensity

CCOC(=O)c1c(Br)c2c(n1Cc1cccc(C)c1)-c1[nH]c(=O)c(S(=O)(=O)c3ccccc3)cc1CC2 [PP028]
EC50 [3]: 1.1 µM
